The source of these data is patent US20140171434A1, “SUBSTITUTED IMIDAZOPYRIDINES AND IMIDAZOPYRIDAZINES AND THE USE THEREOF” (BAYER PHARMA AKTIENGESSELLSCHAFT, priority 2011, published 2014).

In series [1] the test system is recombinant guanylate cyclase reporter cell line. The series can be described thus: Effect on a recombinant guanylate cyclase reporter cell line. It is filed as cell-based. On the procedure: The cellular activity of the compounds according to the invention is determined using a recombinant guanylate cyclase reporter cell line, as described in F. Wunder et al., Anal. Biochem. 339, 104-112 (2005).

A further series relates to rabbit aorta rings. The series can be described thus: Vasorelaxant action in vitro (phenylephrine-contracted rabbit aorta rings). As to conditions: Oryctolagus cuniculus, phenylephrine contraction, 0.1% DMSO, read-out: IC50 (concentration needed to reduce the phenylephrine contraction by 50%). Here is the method: Rabbits are stunned by a blow to the neck and exsanguinated. The aorta is removed, freed from adhering tissue and divided into rings of a width of 1.5 mm. The rings are placed individually under an initial tension in 5 ml organ baths with Krebs-Henseleit solution which is at 37° C., is gassed with carbogen and has the following composition (in each case mM): sodium chloride 119; potassium chloride: 4.8; calcium chloride dihydrate: 1; magnesium sulfate heptahydrate: 1.4; potassium dihydrogenphosphate: 1.2; sodium bicarbonate: 25; glucose: 10. The contractile force is determined with Statham UC2 cells, amplified and digitalized using A/D transducers (DAS 1802 HC, Keithley Instruments Munich), and recorded in parallel on linear recorders. To obtain a contraction, phenylephrine is added to the bath cumulatively in increasing concentration. After several control cycles, the substance to be investigated is added in each further run in increasing dosage in each case, and the height of the contraction achieved is compared with the height of the contraction reached in the last preceding run. This is used to calculate the concentration needed to reduce the magnitude of the control value by 50% (IC50 value). The standard administration volume is 5 μl; the DMSO content in the bath solution corresponds to 0.1%.

The nature of series [2]: Pharmacokinetic parameters following intravenous administration to rats. The class given is in vivo, male Wistar rats. The note with it: rat, 0.3 mg/kg intravenous; for MRT / half-life: male, Wistar, plasma; for MRT: read-out: Mean residence time; for half-life: read-out: Terminal half-life (converted). On the procedure:
The pharmacokinetic parameters of the compounds of the formula (I) according to the invention are determined in male Wistar rats. The administration volume is 5 ml/kg. Intravenous administration is by means of a species-specific plasma/DMSO formulation (99/1). The taking of blood from rats is simplified by inserting a silicone catheter into the right Vena jugularis externa prior to substance administration. The surgical intervention takes place one day prior to the experiment with isofluran anesthesia and administration of an analgetic (atropine/rimadyl (3/1) 0.1 ml s.c.). Substance administration is as an i.v. bolus. Removal of blood from the rats is after 0.033, 0.083, 0.17, 0.5, 1, 2, 3, 4, 6, 8, 24 and 27 hours. The blood is removed into heparinized tubes. The blood plasma is then obtained by centrifugation; if required, it can be stored at −20° C. until further processing.
An internal standard (ZK 228859) is added to the samples of the compounds of the formula (I) according to the invention, calibration samples and QCs, and the protein is precipitated using excess acetonitrile. After addition of an ammonium acetate buffer (0.01 M, pH 6.8) and subsequent vortexing, the mixture is centrifuged at 1000 g and the supernatant is examined by LC-MS/MS (API 4000, AB Sciex). Chromatographic separation is carried out on an Agilent 1100-HPLC. The injection volume is 20 μl. The separation column used is a Phenomenex Gemini 5μ C18 110A 50×3 mm, adjusted to a temperature of 40° C. A binary mobile phase gradient at 500 μl/min is used (A: 0.01M ammonium acetate buffer pH 6.8, B: 0.1% formic acid in acetonitrile): 0 min (90% A), 1 min (90% A), 3 min (10% A), 4 min (10% A), 4.50 min (90% A), 6 min (90% A). The temperature of the Turbo V ion source is 400° C. The following MS instrument parameters are used: curtain gas 15 units, ion spray voltage 4.8 kV, gas 1 50 units, gas 2 40 units, CAD gas 8 units. The substances are quantified by peak heights or areas using extracted ion chromatograms of specific MRM experiments.
The plasma concentration/time plots determined are used to calculate the pharmacokinetic parameters such as AUC, Cmax, t1/2 (terminal half life), MRT (mean residence time) and CL (clearance), using the validated pharmacokinetic calculation program KinEx (Vers.3).
Since the substance quantification is performed in plasma, it is necessary to determine the blood/plasma distribution of the substance in order to be able to adjust the pharmacokinetic parameters correspondingly. For this purpose, a defined amount of substance is incubated in heparinized whole blood of the species in question in a rocking roller mixer for 20 min. After centrifugation at 1000 g, the plasma concentration is measured (see above) and determined by calculating the quotient of the cblood/cplasma values.
Following intravenous administration of 0.3 mg/kg of representative compounds according to the invention to rats, the data listed in Table 3 were obtained: […]

As to `CC1(C)C(=O)Nc2nc(-c3nc(Cc4ccccc4F)n4ncccc34)nc(I)c21` [Example 1, 2-[7-(2-Fluorobenzyl)imidazo[1,5-b]pyridazin-5-yl]-4-iodo-5,5-dimethyl-5,7-dihydro-6H-pyrrolo[2,3-d]pyrimidin-6-one], the “MEC (minimum effective concentration)” value in series [1] was determined as 0.1 µM.
In the case of `CC1(C)C(=O)Nc2nc(-c3nc(CCC(F)(F)C(F)(F)F)n4cc(F)ccc34)nnc21` [Example 12, 3-[6-Fluoro-3-(3,3,4,4,4-pentafluorobutyl)imidazo[1,5-a]pyridin-1-yl]-7,7-dimethyl-5,7-dihydro-6H-pyrrolo[2,3-e][1,2,4]triazin-6-one], in the series on rabbit aorta rings, the IC50 came to 276 nM. In addition, in series [2], the MRT came out at 4.6 h; the half-life (as a rule, the time in which the quantity being followed falls by half) is 5.2 h; the CLblood came out at 2.67 mL/min/kg. Further, the “MEC (minimum effective concentration)” value in series [1] stood at 1.0 µM.
Regarding `CC1(C)C(=O)Nc2nc(-c3nc(Cc4c(F)ccc(F)c4F)n4cc(Cl)ccc34)nnc21` [Example 11, 3-[6-Chloro-3-(2,3,6-trifluorobenzyl)imidazo[1,5-a]pyridin-1-yl]-7,7-dimethyl-5,7-dihydro-6H-pyrrolo[2,3-e][1,2,4]triazin-6-one], in the series with rabbit aorta rings, the IC50 came out at 30 nM. Besides, in series [2], the MRT was determined as 9.4 h, the half-life was 7.2 h and the CLblood was found to be 0.5 mL/min/kg. The “MEC (minimum effective concentration)” value in series [1] was 0.03 µM.
For `CC1(C)C(=O)Nc2nc(-c3nc(Cc4c(F)ccc(F)c4F)n4cc(Cl)ccc34)ncc21` [Example 7, 2-[6-Chloro-3-(2,3,6-trifluorobenzyl)imidazo[1,5-a]pyridin-1-yl]-5,5-dimethyl-5,7-dihydro-6H-pyrrolo[2,3-d]pyrimidin-6-one], the “MEC (minimum effective concentration)” value in series [1] stood at 0.01 µM.
As to `CC1(C)C(=O)Nc2nc(-c3nc(Cc4ccccc4F)n4ncccc34)nnc21` [Example 4, 3-[7-(2-Fluorobenzyl)imidazo[1,5-b]pyridazin-5-yl]-7,7-dimethyl-5,7-dihydro-6H-pyrrolo[2,3-e][1,2,4]triazin-6-one], the IC50 with rabbit aorta rings stood at 42 nM. The “MEC (minimum effective concentration)” value in series [1] stood at 0.03 µM.
Regarding `CC1(C)C(=O)Nc2nc(-c3nc(Cc4ccccc4F)n4ncccc34)ncc21` [Example 3, 2-[7-(2-Fluorobenzyl)imidazo[1,5-b]pyridazin-5-yl]-5,5-dimethyl-5,7-dihydro-6H-pyrrolo[2,3-d]pyrimidin-6-one], the IC50 in the series on rabbit aorta rings amounted to 72 nM. Further, the “MEC (minimum effective concentration)” value in series [1] was determined as 0.03 µM.
